In patent US10125129B2 (priority 2016, dated 2018) one finds EC50 data, which are given here for 24 molecules.

Some results are limits rather than exact numbers.

T1 sequence (P35372 whole entry): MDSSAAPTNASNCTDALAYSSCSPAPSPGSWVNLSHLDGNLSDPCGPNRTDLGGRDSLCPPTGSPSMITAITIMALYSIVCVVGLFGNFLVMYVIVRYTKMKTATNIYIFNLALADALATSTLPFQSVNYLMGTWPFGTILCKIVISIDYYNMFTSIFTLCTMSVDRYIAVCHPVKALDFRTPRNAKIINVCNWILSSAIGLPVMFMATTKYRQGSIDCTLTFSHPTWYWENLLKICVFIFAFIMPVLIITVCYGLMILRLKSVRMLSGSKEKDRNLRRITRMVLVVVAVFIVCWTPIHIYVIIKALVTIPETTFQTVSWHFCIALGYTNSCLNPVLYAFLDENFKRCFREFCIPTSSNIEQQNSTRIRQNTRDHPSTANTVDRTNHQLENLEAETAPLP

The first assay concerns the target T1, μ opioid receptor (MOR) (Homo sapiens, UniProt P35372).
T1 construct: expressed in transfected cells
Put plainly: cell-based. Particulars: EC50. In kind it is cell-based.
For `COC(=O)[C@@H]1C=C(OC(=O)c2cncs2)C(=O)[C@H]2[C@@]1(C)CC[C@H]1C(=O)O[C@H](c3ccoc3)C[C@]21C` [Table 3 Entry 8, (2S,4aR,6aR,7R,10aR,10bR)-2-(Furan-3-yl)-7-(methoxycarbonyl)-6a,10b-dimethyl-4,10-dioxo-2,4,4a,5,6,6a,7,10,10a,10b-decahydro-1H-benzo[f]isochromen-9-yl thiazole-5-carboxylate], the EC50 is more than 10000 nM.

As to `COC(=O)[C@@H]1C=C(OC(=O)c2cncnc2)C(=O)[C@H]2[C@@]1(C)CC[C@H]1C(=O)O[C@H](c3ccoc3)C[C@]21C` [Table 3 Entry 11, (2S,4aR,6aR,7R,10aR,10bR)-2-(Furan-3-yl)-7-(methoxycarbonyl)-6a,10b-dimethyl-4,10-dioxo-2,4,4a,5,6,6a,7,10,10a,10b-decahydro-1H-benzo[f]isochromen-9-yl pyrimidine-5-carboxylate], the midpoint of the response, the EC50, lay at 6 ± 1 nM.

`COC(=O)[C@@H]1C=C(OC(=O)c2cocn2)C(=O)[C@H]2[C@@]1(C)CC[C@H]1C(=O)O[C@H](c3ccoc3)C[C@]21C` [Table 3 Entry 9, (2S,4aR,6aR,7R,10aR,10bR)-2-(Furan-3-yl)-7-(methoxycarbonyl)-6a,10b-dimethyl-4,10-dioxo-2,4,4a,5,6,6a,10,10a,10b-decahydro-1H-benzo[f]isochromen-9-yl oxazole-4-carboxylate] came in with an EC50 of 30 ± 2 nM.

`COC(=O)[C@@H]1C=C(OC(=O)c2cscn2)C(=O)[C@H]2[C@@]1(C)CC[C@H]1C(=O)O[C@H](c3ccoc3)C[C@]21C` [Table 3 Entry 7, (2S,4aR,6aR,7R,10aR,10bR)-2-(Furan-3-yl)-7-(methoxycarbonyl)-6a,10b-dimethyl-4,10-dioxo-2,4,4a,5,6,6a,7,10,10a,10b-decahydro-1H-benzo[f]isochromen-9-yl thiazole-4-carboxylate] showed an EC50 of 8 ± 3 nM.

The assay is the same for the next values; noted with them: Series 1 EC50.
With `COC(=O)[C@@H]1C[C@H](OC(=O)c2cccc([N+](=O)[O-])c2)C(=O)[C@H]2[C@@]1(C)CC[C@H]1C(=O)O[C@H](c3ccoc3)C[C@]21C` [Series 1 Entry 3], a half-maximal effect (EC50) was put at 3500 ± 200 nM.

The molecule `COC(=O)[C@@H]1C[C@H](OC(=O)c2ccccc2[N+](=O)[O-])C(=O)[C@H]2[C@@]1(C)CC[C@H]1C(=O)O[C@H](c3ccoc3)C[C@]21C` [Series 1 Entry 2] returned an EC50 of 2000 ± 1000 nM.

`COC(=O)[C@@H]1C[C@H](OC(=O)c2cccnc2)C(=O)[C@H]2[C@@]1(C)CC[C@H]1C(=O)O[C@H](c3ccoc3)C[C@]21C` [Series 1 Entry 18]: the response was half-maximal at 240 ± 20 nM (EC50).

On to `COC(=O)[C@@H]1C[C@H](OC(=O)c2cccc(Cl)c2)C(=O)[C@H]2[C@@]1(C)CC[C@H]1C(=O)O[C@H](c3ccoc3)C[C@]21C` [Series 1 Entry 6, (2S,4aR,6aR,7R,9S,10aS,10bR)-Methyl 9-((3-chlorobenzoyl)oxy)-2-(furan-3-yl)-6a,10b-dimethyl-4,10-dioxododecahydro-1H-benzo[f]isochromene-7-carboxylate], for which the midpoint of the response, the EC50, lay at 2400 ± 100 nM.

With `COC(=O)[C@@H]1C[C@H](OC(=O)c2ccc(C)cc2)C(=O)[C@H]2[C@@]1(C)CC[C@H]1C(=O)O[C@H](c3ccoc3)C[C@]21C` [Series 1 Entry 13, (2S,4aR,6aR,7R,9S,10aS,10bR)-Methyl 2-(furan-3-yl)-6a,10b-dimethyl-9-((4-methylbenzoyl)oxy)-4,10-dioxododecahydro-1H-benzo[f]isochromene-7-carboxylate], the response was half-maximal at 430 ± 10 nM (EC50).

Molecule `COC(=O)[C@@H]1C[C@H](OC(=O)c2ccncc2)C(=O)[C@H]2[C@@]1(C)CC[C@H]1C(=O)O[C@H](c3ccoc3)C[C@]21C` [Series 1 Entry 19, (2S,4aR,6aR,7R,9S,10aS,10bR)-2-(furan-3-yl)-7-(methoxycarbonyl)-6a,10b-dimethyl-4,10-dioxododecahydro-2H-benzo[f]isochromen-9-yl isonicotinate] returned an EC50 of 340 ± 10 nM.

`COC(=O)[C@@H]1C[C@H](OC(=O)c2cccc(C)c2)C(=O)[C@H]2[C@@]1(C)CC[C@H]1C(=O)O[C@H](c3ccoc3)C[C@]21C` [Series 1 Entry 12, (2S,4aR,6aR,7R,9S,10aS,10bR)-Methyl 2-(furan-3-yl)-6a,10b-dimethyl-9-((3-methylbenzoyl)oxy)-4,10-dioxododecahydro-1H-benzo[f]isochromene-7-carboxylate] yielded an EC50 of 1800 ± 300 nM.

`COC(=O)[C@@H]1C[C@H](OC(=O)c2cccs2)C(=O)[C@H]2[C@@]1(C)CC[C@H]1C(=O)O[C@H](c3ccoc3)C[C@]21C` [Series 1 Entry 20]: the half-maximal effective concentration (EC50) came to 330 ± 70 nM.

In turn, `COC(=O)[C@@H]1C[C@H](OC(=O)c2ccc(F)cc2)C(=O)[C@H]2[C@@]1(C)CC[C@H]1C(=O)O[C@H](c3ccoc3)C[C@]21C` [Series 1 Entry 10, (2S,4aR,6aR,7R,9S,10aS,10bR)-Methyl 9-((4-fluorobenzoyl)oxy)-2-(furan-3-yl)-6a,10b-dimethyl-4,10-dioxododecahydro-1H-benzo[f]isochromene-7-carboxylate] yielded an EC50 of 800 ± 200 nM.

Staying with this assay, now noted: Series 2 EC50.
The molecule `COC(=O)[C@@H]1C=C(OC(=O)c2cc3ccccc3o2)C(=O)[C@H]2[C@@]1(C)CC[C@H]1C(=O)O[C@H](c3ccoc3)C[C@]21C` [Series 2 Entry 22, (2S,4aR,6aR,7R,10aR,10bR)-Methyl 9-((benzofuran-2-carbonyl)oxy)-2-(furan-3-yl)-6a,10-dimethyl-4,10-dioxo-2,4,4a,5,6,6a,7,10,10a,10bdecahydro-1H-benzo[f]isochromene-7-carboxylate] gave an EC50 of 31 ± 9 nM.

`COC(=O)[C@@H]1C=C(OC(=O)c2cccc([N+](=O)[O-])c2)C(=O)[C@H]2[C@@]1(C)CC[C@H]1C(=O)O[C@H](c3ccoc3)C[C@]21C` [Series 2 Entry 3, (2S,4aR,6aR,7R,10aR,10bR)-Methyl 2-(furan-3-yl)-6a,10b-dimethyl-9-((3-nitrobenzoyl)oxy)-4,10-dioxo-2,4,4a,5,6,6a,7,10,10a,10b-decahydro-1H-benzo[f]isochromene-7-carboxylate] had an EC50 of 320 ± 10 nM.

On to `COC(=O)[C@@H]1C=C(OC(=O)c2ccccc2C)C(=O)[C@H]2[C@@]1(C)CC[C@H]1C(=O)O[C@H](c3ccoc3)C[C@]21C` [Series 2 Entry 11, (2S,4aR,6aR,7R,10aR,10bR)-Methyl 2-(furan-3-yl)-6a,10b-dimethyl-9-((2-methylbenzoyl)oxy)-4,10-dioxo-2,4,4a,5,6,6a,7,10,10a,10b-decahydro-1H-benzo[f]isochromene-7-carboxylate], for which a half-maximal response (EC50) required 240 ± 40 nM.

In turn, `COC(=O)[C@@H]1C=C(OC(=O)c2cccc(C)c2)C(=O)[C@H]2[C@@]1(C)CC[C@H]1C(=O)O[C@H](c3ccoc3)C[C@]21C` [Series 2 Entry 12, (2S,4aR,6aR,7R,10aR,10bR)-Methyl 2-(furan-3-yl)-6a,10b-dimethyl-9-((3-methylbenzoyl)oxy)-4,10-dioxo-2,4,4a,5,6,6a,7,10,10a,10b-decahydro-1H-benzo[f]isochromene-7-carboxylate] returned an EC50 of 160 ± 30 nM.

`COC(=O)[C@@H]1C=C(OC(=O)c2cccc(Cl)c2)C(=O)[C@H]2[C@@]1(C)CC[C@H]1C(=O)O[C@H](c3ccoc3)C[C@]21C` [Series 2 Entry 6, (2S,4aR,6aR,7R,10aR,10bR)-Methyl 9-((3-chlorobenzoyl)oxy)-2-(furan-3-yl)-6a,10b-dimethyl-4,10-dioxo-2,4,4a,5,6,6a,7,10,10a,10b-decahydro-1H-benzo[f]isochromene-7-carboxylate] came in with an EC50 of 250 ± 30 nM.

In the case of `COC(=O)[C@@H]1C=C(OC(=O)c2ccc(F)cc2)C(=O)[C@H]2[C@@]1(C)CC[C@H]1C(=O)O[C@H](c3ccoc3)C[C@]21C` [Series 2 Entry 10, (2S,4aR,6aR,7R,10aR,10bR)-Methyl 9-((4-fluorobenzoyl)oxy)-2-(furan-3-yl)-6a,10b-dimethyl-4,10-dioxo-2,4,4a,5,6,6a,7,10,10a,10b-decahydro-1H-benzo[f]isochromene-7-carboxylate], the EC50 was 5 ± 1 nM.

With `COC(=O)[C@@H]1C=C(OC(=O)c2ccccc2Cl)C(=O)[C@H]2[C@@]1(C)CC[C@H]1C(=O)O[C@H](c3ccoc3)C[C@]21C` [Series 2 Entry 5, (2S,4aR,6aR,7R,10aR,10bR)-Methyl 9-((2-chlorobenzoyl)oxy)-2-(furan-3-yl)-6a,10b-dimethyl-4,10-dioxo-2,4,4a,5,6,6a,7,10,10a,10b-decahydro-1H-benzo[f]isochromene-7-carboxylate], a half-maximal response (EC50) required 290 ± 20 nM.

As for `COC(=O)[C@@H]1C=C(OC(=O)c2ccccc2F)C(=O)[C@H]2[C@@]1(C)CC[C@H]1C(=O)O[C@H](c3ccoc3)C[C@]21C` [Series 2 Entry 8], a half-maximal response (EC50) required 4.7 ± 0.4 nM.

Still in this assay, the particulars now being: read-out: Series 2 EC50.
For the molecule `COC(=O)[C@@H]1C=C(OC(=O)c2ccc(OC)cc2)C(=O)[C@H]2[C@@]1(C)CC[C@H]1C(=O)O[C@H](c3ccoc3)C[C@]21C` [Series 2 Entry 16, (2S,4aR,6aR,7R,10aR,10bR)-Methyl 2-(furan-3-yl)-9-((4-methoxybenzoyl)oxy)-6a,10b-dimethyl-4,10-dioxo-2,4,4a,5,6,6a,7,10,10a,10b-decahydro-1H-benzo[f]isochromene-7-carboxylate], the concentration for a half-maximal effect (EC50) is 8 ± 3 nM.

Take `COC(=O)[C@@H]1C=C(OC(=O)c2cccc(OC)c2)C(=O)[C@H]2[C@@]1(C)CC[C@H]1C(=O)O[C@H](c3ccoc3)C[C@]21C` [Series 2 Entry 15, (2S,4aR,6aR,7R,10aR,10bR)-Methyl 2-(furan-3-yl)-9-((3-methoxybenzoyl)oxy)-6a,10b-dimethyl-4,10-dioxo-2,4,4a,5,6,6a,7,10,10a,10b-decahydro-1H-benzo[f]isochromene-7-carboxylate]: the EC50 worked out at 11 ± 2 nM.

With `COC(=O)[C@@H]1C=C(OC(=O)c2ccc([N+](=O)[O-])cc2)C(=O)[C@H]2[C@@]1(C)CC[C@H]1C(=O)O[C@H](c3ccoc3)C[C@]21C` [Series 2 Entry 4, (2S,4aR,6aR,7R,10aR,10bR)-Methyl 2-(furan-3-yl)-6a,10b-dimethyl-9-((4-nitrobenzoyl)oxy)-4,10-dioxo-2,4,4a,5,6,6a,7,10,10a,10b-decahydro-1H-benzo[f]isochromene-7-carboxylate], the EC50 was 31 ± 2 nM.

In general, EC50 refers to the concentration at which the effect is half-maximal.
